ChEMBL document CHEMBL4840375, “Ring A/B-Modified 17β-Hydroxywithanolide Analogues as Antiproliferative Agents for Prostate Cancer and Potentiators of Immunotherapy for Renal Carcinoma and Melanoma” (J Nat Prod, 2021)
pIC50: −log10 of the molar value.

Key:
[1] = tested on: ACHN; experiment: Antiproliferative activity against human ACHN cells assessed as inhibition of cell proliferation incubated for 72 hrs by MTT assay; assay type: functional, cell-based
[2] = tested on: SK-MEL-28; experiment: Antiproliferative activity against human SK-MEL-28 cells assessed as inhibition of cell proliferation incubated for 72 hrs by MTT assay; assay type: functional, cell-based; settings: SK-MEL-28, 72 h
[3] = tested on: M14; experiment: Antiproliferative activity against human M14 cells assessed as inhibition of cell proliferation incubated for 72 hrs by MTT assay; assay type: functional, cell-based; settings: M14, 72 h
[4] = tested on: HFF; experiment: Cytotoxicity against human HFF cells assessed as reduction in cell viability incubated for 72 hrs by MTT assay; assay type: cell-based
[5] = tested on: CWR22R; experiment: Antiproliferative activity against human 22Rv1 cells assessed as inhibition of cell proliferation incubated for 72 hrs by MTT assay; assay type: functional, cell-based; settings: 22Rv1, 72 h
[6] = tested on: LNCaP; experiment: Antiproliferative activity against human LNCaP cells assessed as inhibition of cell proliferation incubated for 72 hrs by MTT assay; assay type: functional, cell-based
[7] = tested on: SK-MEL-28; experiment: Potentiation of poly I:C-induced antiproliferative activity against human SK-MEL-28 cells assessed as reduction in cell numbers by measuring IC50 pretreated with compound for 2 hrs followed by poly I:C addition and measured after 48 hrs by MTT assay; assay type: functional, cell-based; note: test concentration or dose not given here
[8] = tested on: M14; experiment: Antiproliferative activity against human M14 cells assessed as inhibition of cell proliferation incubated for 48 hrs by MTT assay; assay type: functional, cell-based; settings: M14, 48 h
[9] = tested on: M14; experiment: Potentiation of poly I:C-induced antiproliferative activity against human M14 cells assessed as reduction in cell numbers by measuring IC50 pretreated with compound for 2 hrs followed by poly I:C addition and measured after 48 hrs by MTT assay; assay type: functional, cell-based; note: test concentration or dose not given here
[10] = tested on: SK-MEL-28; experiment: Antiproliferative activity against human SK-MEL-28 cells assessed as inhibition of cell proliferation incubated for 48 hrs by MTT assay; assay type: functional, cell-based; settings: SK-MEL-28, 48 h
[11] = tested on: ACHN; experiment: Potentiation of TRAIL-induced antiproliferative activity against human ACHN cells assessed as reduction in cell numbers by measuring IC50 pretreated with compound for 2 hrs followed by TRAIL addition and measured after 24 hrs by MTT assay; assay type: functional, cell-based; note: test concentration or dose not given here
[12] = tested on: ACHN; experiment: Antiproliferative activity against human ACHN cells assessed as inhibition of cell proliferation incubated for 24 hrs by MTT assay; assay type: functional, cell-based
[13] = Selectivity ratio of IC50 for HFF cells to IC50 for human LNCaP cells; assay type: toxicity; settings: HFF cells versus LNCaP cells, read-out: Ratio IC50
[14] = Selectivity ratio of IC50 for HFF cells to IC50 for human 22Rv1 cells

Structure (SMILES) | pIC50 [1] | pIC50 [2] | pIC50 [3] | pIC50 [4] | pIC50 [5] | pIC50 [6] | pIC50 [7] | pIC50 [8] | pIC50 [9] | pIC50 [10] | pIC50 [11] | pIC50 [12] | selectivity ratio [13] | Ratio IC50 [14]
CC(=O)OC[C@]12CC[C@H]3[C@@H](C[C@H](OC(C)=O)[C@]45O[C@H]4C=CC(=O)[C@]35C)[C@]1(O)CC[C@@]2(O)[C@@](C)(O)C1CC(C)=C(C)C(=O)O1 (some centres not stated) | < 5.30 | < 5.30 | < 5.30 | < 5.30 | 5.51 | < 5.30 | – | – | – | – | – | – | – | –
CC(=O)OC[C@]12CC[C@H]3[C@@H](CC=C4C=CCC(=O)[C@@]43C)[C@]1(O)CC[C@@]2(O)[C@@](C)(O)C1CC(C)=C(C)C(=O)O1 (some centres not stated) | < 5.30 | < 5.30 | < 5.30 | < 5.30 | 6.01 | – | 5.35 | < 5.30 | < 5.30 | < 5.30 | – | – | – | –
CC(=O)OC[C@]12CC[C@H]3[C@@H](C[C@H]4O[C@]45CCCC(=O)[C@]35C)[C@]1(O)CC[C@@]2(O)[C@@](C)(O)C1CC(C)=C(C)C(=O)O1 (some centres not stated) | < 5.30 | < 5.30 | < 5.30 | < 5.30 | 5.59 | < 5.30 | – | – | – | – | – | – | – | –
CC(=O)OC[C@]12CC[C@H]3[C@@H](CC=C4[C@@H](OC(C)=O)C=CC(=O)[C@@]43C)[C@]1(O)CC[C@@]2(O)[C@@](C)(O)C1CC(C)=C(C)C(=O)O1 (some centres not stated) | – | – | 5.84 | 5.57 | 6.89 | 6.17 | – | – | – | – | – | – | – | –
CC(=O)OC[C@]12CC[C@H]3[C@@H](C[C@H](O)C4=CC=CC(=O)[C@@]43C)[C@]1(O)CC[C@@]2(O)[C@@](C)(O)C1CC(C)=C(C)C(=O)O1 (some centres not stated) | < 5.30 | < 5.30 | < 5.30 | < 5.30 | < 5.30 | < 5.30 | – | – | – | – | – | – | – | –
CC(=O)OC[C@]12CC[C@H]3[C@@H](CC=C4CCCC(=O)[C@@]43C)[C@@]1(O)CC[C@@]2(O)[C@@](C)(O)C1CC(C)=C(C)C(=O)O1 (some centres not stated) | < 5.30 | < 5.30 | < 5.30 | < 5.30 | < 5.30 | < 5.30 | – | – | – | – | – | – | – | –
CC(=O)OC[C@]12CC[C@H]3[C@@H](CC(=O)[C@]45O[C@H]4C=CC(=O)[C@]35C)[C@]1(O)CC[C@@]2(O)[C@@](C)(O)C1CC(C)=C(C)C(=O)O1 (some centres not stated) | < 5.30 | < 5.30 | < 5.30 | < 5.30 | < 5.30 | < 5.30 | – | – | – | – | – | – | – | –
CC(=O)OC[C@]12CC[C@H]3[C@@H](C[C@H]4O[C@]45C(=O)C=CC(=O)[C@]35C)[C@]1(O)CC[C@@]2(O)[C@@](C)(O)C1CC(C)=C(C)C(=O)O1 (some centres not stated) | < 5.30 | < 5.30 | < 5.30 | < 5.30 | < 5.30 | < 5.30 | – | – | – | – | – | – | – | –
CC(=O)OC[C@]12CC[C@H]3[C@@H](C[C@H]4O[C@]45[C@H](OC(C)=O)C=CC(=O)[C@]35C)[C@]1(O)CC[C@@]2(O)[C@@](C)(O)C1CC(C)=C(C)C(=O)O1 (some centres not stated) | 5.48 | 5.59 | < 5.30 | < 5.30 | 6.68 | 5.82 | 5.58 | < 5.30 | < 5.30 | < 5.30 | 6.60 | < 5.30 | – | –
CC(=O)OC[C@]12CC[C@H]3[C@@H](C[C@@H](OC(C)=O)C4=CC=CC(=O)[C@@]43C)[C@]1(O)CC[C@@]2(O)[C@@](C)(O)C1CC(C)=C(C)C(=O)O1 (some centres not stated) | < 5.30 | < 5.30 | < 5.30 | < 5.30 | 6.20 | 6.00 | – | – | – | – | – | – | – | –
CC(=O)OC[C@]12CC[C@H]3[C@@H](C[C@H](O)[C@]45O[C@H]4C=CC(=O)[C@]35C)[C@]1(O)CC[C@@]2(O)[C@@](C)(O)C1CC(C)=C(C)C(=O)O1 (some centres not stated) | < 5.30 | < 5.30 | < 5.30 | < 5.30 | 6.60 | 6.28 | – | – | – | – | – | – | – | –
CC(=O)OC[C@]12CC[C@H]3[C@@H](C[C@H]4O[C@]45[C@@H](O)C=CC(=O)[C@]35C)[C@]1(O)CC[C@@]2(O)[C@@](C)(O)C1CC(C)=C(C)C(=O)O1 (some centres not stated) | < 5.30 | < 5.30 | < 5.30 | < 5.30 | 5.82 | 5.45 | 5.34 | < 5.30 | < 5.30 | < 5.30 | – | – | – | –
CC(=O)OC[C@]12CC[C@H]3[C@@H](C[C@H](OC(C)=O)C4=CC=CC(=O)[C@@]43C)[C@]1(O)CC[C@@]2(O)[C@@](C)(O)C1CC(C)=C(C)C(=O)O1 (some centres not stated) | < 5.30 | < 5.30 | < 5.30 | < 5.30 | 5.94 | 5.70 | – | – | – | – | – | – | – | –
CC(=O)OC[C@]12CC[C@H]3[C@@H](C[C@@H]4O[C@@]45CC=CC(=O)[C@]35C)[C@]1(O)CC[C@@]2(O)[C@@](C)(O)C1CC(C)=C(C)C(=O)O1 (some centres not stated) | < 5.30 | < 5.30 | < 5.30 | < 5.30 | 6.24 | – | 5.34 | < 5.30 | < 5.30 | < 5.30 | – | – | – | –
CC(=O)OC[C@]12CC[C@H]3[C@@H](C[C@@H](O)[C@]45O[C@H]4C=CC(=O)[C@]35C)[C@]1(O)CC[C@@]2(O)[C@@](C)(O)C1CC(C)=C(C)C(=O)O1 (some centres not stated) | < 5.30 | < 5.30 | < 5.30 | < 5.30 | < 5.30 | < 5.30 | – | – | – | – | – | – | – | –
CC(=O)OC[C@]12CC[C@H]3[C@@H](CC(=O)C4=CC=CC(=O)[C@@]43C)[C@]1(O)CC[C@@]2(O)[C@@](C)(O)C1CC(C)=C(C)C(=O)O1 (some centres not stated) | < 5.30 | < 5.30 | 5.63 | < 5.30 | 6.30 | < 5.30 | < 5.30 | < 5.30 | < 5.30 | < 5.30 | – | – | – | –
COc1cccc2c1C(=O)c1c(O)c3c(c(O)c1C2=O)C[C@@](O)(C(=O)CO)C[C@@H]3O[C@H]1C[C@H](N)[C@H](O)[C@H](C)O1 [DOXORUBICIN] | – | – | – | 6.82 | – | – | – | – | – | – | – | – | – | –
CC(=O)OC[C@]12CC[C@H]3[C@@H](CC=C4[C@@H](O)C=CC(=O)[C@@]43C)[C@]1(O)CC[C@@]2(O)[C@@](C)(O)C1CC(C)=C(C)C(=O)O1 (some centres not stated) | – | – | 6.35 | < 5.30 | 7.10 | 6.46 | – | – | – | – | – | – | – | –
CC(=O)OC[C@]12CC[C@H]3[C@@H](C[C@H]4O[C@]45CC=CC(=O)[C@]35C)[C@]1(O)CC[C@@]2(O)[C@@](C)(O)C1CC(C)=C(C)C(=O)O1 (some centres not stated) | – | < 5.30 | 5.80 | 5.64 | – | – | 6.96 | < 5.30 | 6.96 | < 5.30 | 6.80 | < 5.30 | 115 | 75
CC(=O)OC[C@]12CC[C@H]3[C@@H](C[C@H]4O[C@]45[C@H](O)C=CC(=O)[C@]35C)[C@]1(O)CC[C@@]2(O)[C@@](C)(O)C1CC(C)=C(C)C(=O)O1 (some centres not stated) | 5.41 | 5.52 | < 5.30 | < 5.30 | 6.48 | 5.76 | 5.33 | < 5.30 | < 5.30 | < 5.30 | 6.57 | < 5.30 | – | –
CC(=O)OC[C@]12CC[C@H]3[C@@H](C[C@H]4O[C@]45[C@@H](OC(C)=O)C=CC(=O)[C@]35C)[C@]1(O)CC[C@@]2(O)[C@@](C)(O)C1CC(C)=C(C)C(=O)O1 (some centres not stated) | 5.90 | 5.81 | < 5.30 | 5.82 | 6.60 | 6.04 | 5.86 | < 5.30 | 5.78 | 5.56 | 6.60 | < 5.30 | – | –
CC(=O)OC[C@]12CC[C@H]3[C@@H](C[C@@H](O)C4=CC=CC(=O)[C@@]43C)[C@]1(O)CC[C@@]2(O)[C@@](C)(O)C1CC(C)=C(C)C(=O)O1 (some centres not stated) | < 5.30 | < 5.30 | < 5.30 | < 5.30 | 5.72 | 5.53 | – | – | – | – | – | – | – | –
CC(=O)OC[C@]12CC[C@H]3[C@@H](C[C@@H](OC(C)=O)[C@]45O[C@H]4C=CC(=O)[C@]35C)[C@]1(O)CC[C@@]2(O)[C@@](C)(O)C1CC(C)=C(C)C(=O)O1 (some centres not stated) | < 5.30 | < 5.30 | < 5.30 | < 5.30 | 5.86 | < 5.30 | – | – | – | – | – | – | – | –
CC(=O)OC[C@]12CC[C@H]3[C@@H](CC=C4CC=CC(=O)[C@@]43C)[C@]1(O)CC[C@@]2(O)[C@@](C)(O)C1CC(C)=C(C)C(=O)O1 (some centres not stated) | 5.51 | < 5.30 | < 5.30 | < 5.30 | 6.89 | – | 5.75 | < 5.30 | 5.55 | < 5.30 | 6.25 | < 5.30 | – | –
